Data as given in PMC5889558, “The inhibition of human lung fibroblast proliferation and differentiation by Gs-coupled receptors is not predicted by the magnitude of cAMP response” (Respiratory Research, 2018).
Entries after “also recorded” stand apart in the source; their conditions may differ.

Assays:
Assay type in all cases: cell-based
[1] = test system: human lung fibroblasts (HLF); assay: cAMP accumulation in HLF (HitHunter or AlphaScreen); settings: for EC50 / Emax: Homo sapiens, Fibroblast; for EC50: read-out: cAMP pEC50 (converted); for Emax: read-out: cAMP Emax (% max); for cAMP response (in words): acute cAMP accumulation
Experimental: HLF were grown to confluency in 96-well white ViewPlates, before incubation with a range of agonist concentrations, or vehicle, for 2 h at room temperature in HBSS with 5 mM HEPES, 0.1% w/v HSA, and 5 μM rolipram. […] Rolipram was excluded when measuring cAMP levels in response to PDE inhibitors. cAMP levels were measured using either HitHunter cAMP assay or AlphaScreen competition assay following manufacturer protocol, and were assessed on either a BMG LABTEK ClarioStar or a Packard EnVision plate reader. cAMP concentrations in each well were determined using a standard curve. To account for the inter-assay variation in levels of cAMP produced in each experiment, data were normalized to the maximal forskolin response.

[2] = test system: human lung fibroblasts (HLF); assay: HLF proliferation by BrdU incorporation (DELFIA), driven by FBS or PDGF; settings: for Emax / EC50: Homo sapiens, Fibroblast, inhibition of BrdU incorporation, NC = not calculated due to incomplete curve; for EC50: mean ± SEM; for inhibition of FBS- and PDGF-driven proliferation (in words): either stimulus
Experimental: Proliferation of HLF was measured by incorporation of bromodeoxyuridine (BrdU). HLF were seeded overnight at 4000 cells/well in 96-well black ViewPlates, before being starved for 24 h in culture medium devoid of FBS. Proliferation was measured after incubation with a range of concentrations of FBS or PDGF, in DMEM supplemented with 0.1% w/v HSA, for 24 h.
For anti-remodelling assays using BrdU incorporation, cells were incubated for 24 h with a range of concentrations of test compounds in the presence of near maximal concentrations of FBS or PDGF in DMEM supplemented with 0.1% w/v HSA. Proliferation was assessed using the DELFIA BrdU incorporation assay kit following manufacturer protocol. Fluorescence was measured using a Packard EnVision plate reader. To account for the inter-assay variation in levels of proliferation in each experiment, data were normalized to the PDGF or FBS response.

[3] = test system: human lung fibroblasts (HLF); assay: Cell viability assay, caspase-3/7 as marker of apoptosis; settings: 24 h
Experimental: Cell viability was measured using caspase-3/7 expression as a marker of apoptosis after treatment for 24 h with test compounds. HLF were seeded overnight at 6,000 cells/well in 96-well black ViewPlates, before being starved for 24 hours in culture medium devoid of FBS. Cells were incubated for 24 hours in the presence of test compounds at the top concentrations used in the proliferation assays, or in the presence of 100 nM staurosporine to induce apoptosis.
The presence of the apoptotic marker caspase-3/7 was detected by incubating cells with 8 μM CellEvent™ Caspase-3/7 Red Detection Reagent in dPBS with 5 % FBS, for 30 minutes at 37°C. […] Images were analyzed using a multi wavelength cell scoring algorithm within the MetaXpress 5.3 software, which measures cell number using stained nuclei, and percent of these cells positive for caspase-3/7 from Cy5 readouts. To account for the inter-assay variation in levels of caspase 3/7 detected in each experiment, data were normalized to the staurosporine response.
Statistical significance across treatment groups was determined by using the one-way ANOVA with Dunnett’s multiple-comparison post hoc test.

[4] = test system: human lung fibroblasts (HLF); assay: Fibroblast to myofibroblast transdifferentiation (FMT), αSMA immunofluorescence, TGFβ-driven; settings: 48 h, TGFβ 0.3 ng/mL
Experimental: To assess the differentiation of fibroblasts to the myofibroblast phenotype, immunofluorescence was used to monitor increases in α smooth muscle actin (αSMA). HLF were seeded overnight at 1000 cells/well in 384-well black clear bottom plates, before being starved for 24 h growth medium devoid of FBS.
For anti-remodelling assays using FMT, cells were incubated for 48 h with a range of concentrations of test compounds and incubated for 48 h, at 37°C, 5% CO2 in the presence of a near maximal concentration of TGFβ (0.3 ng/mL), to promote differentiation in DMEM supplemented with 0.1% w/v HSA. Following stimulation, cells were fixed in 4% paraformaldehyde, washed 3× in PBS (with Ca^2+/Mg^2+), and incubated with permeabilising blocking buffer (dPBS (with Ca^2+/Mg^2+), 10% FBS (v/v), 0.1% Triton X-100 (v/v)) for 1 h at 37°C. Wells were then washed 3× in wash buffer (Tris Buffered Saline (TBS), 0.05% (v/v) Tween-20) and incubated with mouse anti-α SMA (1:1000 dilution in permeabilising blocking buffer) for 1 h at room temperature, with gentle shaking. Following 3× wash in wash buffer, wells were incubated with blocking buffer containing Hoechst to stain for nuclear DNA (2 μM), and FITC-conjugated Affini-pure goat […] IgG (1:1000 dilution in blocking buffer) for 30 min at 37°C. Fluorescence was then quantified on a widefield ImageXpress Micro microscope, with a Plan Fluor 20X objective, DAPI filter cube (excitation 400–418 nm, emission 435–470 nm), 50 ms exposure time for nuclei, and FITC filter cube (excitation 467–498 nm, emission 513–556 nm), 200 ms exposure time for αSMA.
To quantify increases in αSMA fluorescence, a standard Multi-Wavelength Cell Scoring algorithm was used in MetaXpress 5.3 software (Molecular Devices, California, USA). To account for the inter-assay variation in levels of αSMA expression produced in each experiment, data were normalized to the response to TGFβ.

[5] = HLF, 2 h, room temperature, 5 μM rolipram (excluded for PDE inhibitors), mean ± SEM, at least 3 experiments, NC = not calculated due to incomplete curve
[6] = HLF, 2 h, percentage of the maximal forskolin response, mean ± SEM, NC = not calculated due to incomplete curve
[7] = 24 h, EC80 PDGF, percentage of maximal proliferation observed with PDGF, read-out: Proliferation vs PDGF Emax (% max)
[8] = 24 h, EC80 concentration of PDGF, read-out: Proliferation vs PDGF pEC50 (converted)
[9] = 24 h, EC80 concentration of serum, read-out: Proliferation vs serum pEC50 (converted)
[10] = 24 h, EC80 serum, percentage of maximal proliferation observed with serum, read-out: Proliferation vs serum Emax (% max)
[11] = HLF, 1:10 dilution of top conc 10 μM
[12] = HLF, top conc 10 μM, mean ± SEM, n=3

Q: For CC#CCC(C)[C@H](O)/C=C/[C@@H]1[C@H]2c3cccc(CCCC(=O)O)c3O[C@H]2C[C@H]1O (mixture of isomers) [Beraprost], which EC50 [1, 5] is on record?
A: 105 nM

Q: What about the Emax [1, 6] of the same molecule?
A: 107 ± 8.99%

Q: CCCCC(C)(O)C/C=C/[C@H]1[C@H](O)CC(=O)[C@@H]1CCCCCCC(=O)OC (mixture of isomers) [Misoprostol] was tested. Which EC50 [1, 5] did it give?
A: 107 nM

Q: What about the Emax [1, 6] of the same molecule?
A: 52.4 ± 6.23%

Q: What about the Emax [2, 7] of the same molecule?
A: 94.1 ± 1.59%

Q: What about the EC50 [2, 8] of the same molecule?
A: 741 nM

Q: What about the EC50 [2, 9] of the same molecule?
A: 182 nM

Q: What about the Emax [2, 10] of the same molecule?
A: 34.7 ± 0.71%

Q: And the “% cells positive for caspase-3/7, 1:10 dilution” value (“% cells positive … 1:10 dilution” for short) ([3]; human, 1 μM)?
A: 0.55 ± 0.04%

Q: What about the “% cells positive for caspase-3/7, Top conc” value (shortened to “% cells positive … Top conc”) ([3]; human, 10 μM) of the same molecule?
A: 0.54 ± 0.18%

Q: Which results are given for O=C(O)COc1cccc(-c2ocnc2-c2nc(-c3ccccc3)c(-c3ccccc3)o2)c1 [BMY-45778]?
A: cAMP pEC50 [1, 5]: 7.25 ± 0.09; cAMP Emax (% max) [1, 6]: 50.0 ± 4.59 % max

Q: How did the EC50 [1, 5] turn out when CCCC1([C@H](O)C/C=C/[C@H]2[C@H](O)CC(=O)[C@@H]2CCCCCCC(=O)OC)CCC1 [Butaprost] was run?
A: 1550 nM

Q: And the Emax [1, 6]?
A: 8.76 ± 3.25%

Q: What about the “maximal level of inhibition of serum-driven proliferation” value ([2]; BrdU, 24 h, near maximal FBS) of the same molecule?
A: 29%

Q: And the EC50 [2, 9]?
A: 64.6 nM

Q: What about the Emax [2, 10] of the same molecule?
A: 29.1 ± 7.29%

Q: And the “% cells positive … 1:10 dilution” value [3, 11]?
A: 0.90 ± 0.39%

Q: And the “% cells positive … Top conc” value [3, 12]?
A: 0.80 ± 0.29%

Q: Which “cAMP response (in words)” value ([1]; HLF) does the source give for CCNC(=O)[C@H]1O[C@@H](n2cnc3c(N)nc(NCCc4ccc(CCC(=O)O)cc4)nc32)[C@H](O)[C@@H]1O [CGS-21680] here?
A: no detectable cAMP response

Q: Which results are given for COc1ccc(CC(C)NCC(O)c2ccc(O)c(NC=O)c2)cc1 (stereo not drawn) [Formoterol]?
A: EC50 ([1]; 2 h): 0.417 nM; EC50 [2, 8]: 0.832 nM; EC50 [2, 9]: 0.263 nM; % cells positive for caspase-3/7, 1:10 dilution ([3]; HLF, 1:10 dilution of top conc 100 nM): 0.88 ± 0.48%; % cells positive for caspase-3/7, Top conc ([3]; HLF, top conc 100 nM): 0.67 ± 0.22%

Q: With CC(C)Cn1c(=O)n(C)c(=O)c2[nH]cnc21 [IBMX] as the molecule, how does the “cAMP response (in words)” value ([1]; HLF) read?
A: no detectable cAMP accumulation; also recorded: did not observe any acute cAMP accumulation

Q: What about the “inhibition of FBS- and PDGF-driven proliferation (in words)” value ([2]; BrdU, 24 h) of the same molecule?
A: some inhibition of both proliferation and FMT at higher concentrations

Q: What about the “inhibition of TGFβ-driven FMT (in words)” value [4] of the same molecule?
A: full concentration-response curves could not be established; also recorded: some inhibition of both proliferation and FMT at higher concentrations

Q: How did the EC50 [1, 5] turn out when CC#CCC(C)[C@H](O)/C=C/[C@@H]1[C@H]2C/C(=C/CCCC(=O)O)C[C@H]2C[C@H]1O (stereo partly drawn) [Iloprost] was run?
A: 77.6 nM

Q: And the Emax [1, 6]?
A: 99.5 ± 7.22%

Q: And the “% cells positive … 1:10 dilution” value ([3]; human, 0.3 μM)?
A: 1.15 ± 0.29%

Q: What about the “% cells positive … Top conc” value ([3]; human, 3 μM) of the same molecule?
A: 0.88 ± 0.08%

Q: With CCc1cc2c(cc1CC)CC(NC[C@H](O)c1ccc(O)c3[nH]c(=O)ccc13)C2 [Indacaterol] as the molecule, how does the “maximal cAMP response” value ([1]; HLF, % of the forskolin response) read?
A: 80%

Q: And the EC50 [1, 5]?
A: 2.63 nM

Q: And the Emax [1, 6]?
A: 83.3 ± 4.47%

Q: What about the Emax [2, 7] of the same molecule?
A: 90.3 ± 5.25%

Q: What about the EC50 [2, 8] of the same molecule?
A: 1.45 nM

Q: And the EC50 [2, 9]?
A: 11 nM

Q: What about the Emax [2, 10] of the same molecule?
A: 47.9 ± 1.58%

Q: What about the “% cells positive … 1:10 dilution” value ([3]; HLF, 1:10 dilution of top conc 1 μM) of the same molecule?
A: 0.62 ± 0.15%

Q: And the “% cells positive … Top conc” value ([3]; HLF, top conc 1 μM)?
A: 0.62 ± 0.01%

Q: O=C(NOC[C@H](O)CO)c1ccc(F)c(F)c1Nc1ccc(I)cc1F [PD0325901] was tested. Which “inhibition of PDGF-mediated proliferation (in words)” value ([2]; 3 ng/mL PDGF) did it give?
A: blocked PDGF-mediated proliferation of HLF

Q: What does the source list for CCCCC[C@H](O)/C=C/[C@H]1[C@H](O)CC(=O)[C@@H]1C/C=C\CCCC(=O)O [PGE2, prostaglandin E2]?
A: EC50 [1, 5]: 45.7 nM; Emax [1, 6]: 85.5 ± 8.64%; Emax [2, 7]: 71 ± 3.86%; EC50 [2, 8]: 2.51 nM; EC50 [2, 9]: 91.2 nM; Emax [2, 10]: 43.1 ± 6.14%; % cells positive for caspase-3/7, 1:10 dilution [3, 11]: 0.53 ± 0.04%; % cells positive for caspase-3/7, Top conc [3, 12]: 0.68 ± 0.29%

Q: For COc1ccc(C2CNC(=O)C2)cc1OC1CCCC1 (stereo not drawn) [Rolipram], which “cAMP response (in words)” value ([1]; HLF) is on record?
A: no detectable cAMP accumulation

Q: What about the “inhibition of FBS- and PDGF-driven proliferation (in words)” value ([2]; BrdU, 24 h) of the same molecule?
A: incapable of inhibiting the proliferation mediated by either stimulus

Q: What about the “inhibition of TGFβ-driven FMT (in words)” value [4] of the same molecule?
A: full concentration-response curves could not be established

Q: What does the source list for CC(C)(C)NCC(O)c1ccc(O)c(CO)c1 (stereo not drawn) [Salbutamol]?
A: EC50 [1, 5]: 43.7 nM; Emax [1, 6]: 68.9 ± 1.4%; Emax [2, 7]: 69.2 ± 5.53%; EC50 [2, 8]: 10.5 nM; EC50 [2, 9]: 91.2 nM; Emax [2, 10]: 32.4 ± 5.84%; % cells positive for caspase-3/7, 1:10 dilution ([3]; human, 1 μM): 0.53 ± 0.12%; % cells positive for caspase-3/7, Top conc ([3]; human, 10 μM): 0.46 ± 0.09%

Q: How did the “% cells positive … Top conc” value ([3]; HLF, top conc 100 nM) turn out when CN[C@@H]1C[C@H]2O[C@@](C)([C@@H]1OC)n1c3ccccc3c3c4c(c5c6ccccc6n2c5c31)C(=O)NC4 [Staurosporine] was run?
A: 54.8 ± 13.6%

Q: What about the “caspase-3/7 expression / apoptosis (in words)” value ([3]; HLF, one-way ANOVA with Dunnett's test) of the same molecule?
A: statistically significant cell apoptosis

Q: How did the “cAMP response (in words)” value ([1]; HLF) turn out when “Alpha melanocortin stimulating hormone (Ac-SYSMEHFRWGKPV-NH2; ends and bridges not checked; UniProt P01189 138-150, looked up) [α-MSH, MC1, MC3, MC4, MC5 agonist]” was run?
A: no detectable cAMP response

Q: And the “inhibition of FBS- and PDGF-driven proliferation (in words)” value ([2]; BrdU, 24 h)?
A: incapable of inhibiting the proliferation mediated by either stimulus

Q: What about the “inhibition of TGFβ-driven FMT (in words)” value [4] of the same molecule?
A: full concentration-response curves could not be established
